Drawing on publication PMC11963559, “Identification of novel thiazole derivatives as flaviviral protease inhibitors effective against Dengue (DENV2) and Japanese encephalitis viruses” (Antimicrobial Agents and Chemotherapy, 2025), this text covers IC50 for two compounds.

Molecules are shown by their SMILES.

The subject of experiment [1] is DENV2. In words: DENV2 progeny virus titer in BHK-21 supernatant (TCID50 assay). Conditions: Dengue virus, DENV2, BHK-21, read-out: IC50 of viral titer reduction (called TCID50 in the source). Format: cell-based. The procedure: To this end, we assessed the antiviral activity of shortlisted compounds by evaluating their ability to inhibit progeny virus production. BHK-21 cells were infected with DENV2 and JEV (MOI: 0.1) in the presence of different concentrations of 3aq or 3au or with DMSO, and viral titer was determined in the supernatants harvested at 18 hpi. Compound 3aq caused the maximum reduction of viral titer showing TCID50 of 5.18 ± 0.87 and 2.29 ± 0.50 µM against DENV2 and JEV, respectively (Fig. 8B and D).
During DENV2 and JEV infection, the viral supernatant was collected and used in the TCID50 assay to determine the viral titer. Then, 3 × 10^4 BHK-21 cells per well were seeded in a 96-well cell culture microtiter plate the day before titration. The virus stock was diluted with infection media (DMEM + 2% FBS) to attain virus dilutions of 1 × 10^−2 to 6.4 × 10^−7 in 12 parallels, with the last column of the 96-well plate serving as virus-free cell control. On the day of the assay, when the cell had reached 90%–95% confluency, the growth medium was aspirated using a multichannel pipette, and 100 µL of virus inoculum of different dilutions was transferred to each well, keeping the last well only in infection media without virus. The cells were then incubated at 37 °C in a humidified 5% CO2 chamber. […] TCID50 was calculated using the Spearman and Karber methods.

The target in experiment [2] is T1, DENV2 NS2B–NS3 protease (Dengue virus type 2, UniProt P14340).
T1 construct: Activity of recombinant dengue 2 virus NS3 protease in the presence of a truncated NS2B co-factor; The N-terminal domain of NS3 contains a highly conserved protease-active core; made in house; host or cells: Escherichia coli BL21(DE3)
T1 sequence (P14340 1476-1653): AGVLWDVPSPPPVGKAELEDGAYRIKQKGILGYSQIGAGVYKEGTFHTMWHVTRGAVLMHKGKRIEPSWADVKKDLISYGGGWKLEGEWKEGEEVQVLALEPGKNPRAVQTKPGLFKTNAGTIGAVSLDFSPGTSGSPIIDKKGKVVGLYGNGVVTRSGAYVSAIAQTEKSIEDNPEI
T1 sequence (P14340 1398-1437): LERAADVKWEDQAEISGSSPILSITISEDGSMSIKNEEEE
In words: In vitro DENV2 NS2B/NS3pro inhibition assay using a FRET substrate. It is filed as biochemical. The note with it: IC50 (µM), DENV protease inhibitory activity, 5 µM substrate, 10 nM NS2b-NS3pro, compounds at 1, 10 and 100 µM, 1 h at RT; compounds 3ao–3av. The procedure:
To assess the anti-DENV NS2B–NS3 activity of the compounds, we expressed the DENV2 NS2B–NS3 protease in BL21DE3 cells and subsequently purified it using Ni-NTA affinity chromatography, as outlined in Materials and Methods ([39], [40]). The protease activity assay was performed using different concentrations (1, 2.5, 5, 10, 25, 50, 75, and 100 µM) of a fluorogenic substrate (Abs-Nle-Lys-Arg-Arg-Ser-3-(NO2)Tyr) at various time points (5, 15, 30, 45, and 60 min), as described previously ([39], [41]). […] Therefore, all subsequent assays were conducted with a 1 h incubation time.
The selected compounds were analyzed using in vitro protease assays performed in black 96-well plates. […] All assays were performed in triplicate. The release of free AMC was measured using a Varioskan LUX multimode microplate reader (Thermo Fisher Scientific) at excitation and emission wavelengths of 380 and 460 nm, respectively. Control fluorescence values obtained in the absence of inhibitors were considered 100%, and those obtained in the presence of inhibitors were calculated as the percentage of inhibition of the control using Microsoft Excel and plotted using Origin Pro 2023b. The background AMC in the absence of protease was subtracted before data analysis. Further, protease assay was done using different concentration of the compounds (1, 10, and 100 µM) to evaluate the IC50 for the in vitro assay. IC50 curves were fitted and determined by fitting the nonlinear equation in Origin2023b software. A similar approach was used to analyze the enzymatic kinetics of protease inhibition. The reaction progress was monitored by the release of free aminomethylcoumarin (AMC), as previously described. The substrate was incubated with or without the inhibitor in the aforementioned reaction buffer in the presence of varying concentrations of the substrate. The reactions were initiated by the addition of the NS2B–NS3 protease. Protease activity was monitored for 1 h based on the initial rate of increase in fluorescence intensity at 460 nm, with an excitation wavelength of 380 nm. The results were analyzed using Origin Pro 2023b and the Michaelis–Menten equation to obtain the apparent Michaelis–Menten constants and maximal velocities. All assays were performed in triplicate. For each tested compound, two different concentrations of the inhibitor (0, 10, and 25 µM) were used at various concentrations (0–250 μM) of the substrate. The mechanism of inhibition was determined by observing the deviations in the apparent Km and Vmax values.

As for `COc1ccc(-c2csc(N/N=C(\C)c3cc(O)cc(O)c3)n2)cc1` [3au], the values for the IC50 in experiment [1] and in experiment [2] were 7.58 ± 1.02 µM and 20.8 µM, respectively.

Turning to `COc1ccc(-c2csc(N/N=C(\C)c3ccc(O)cc3)n2)cc1` [3aq], the 50% inhibitory concentration (IC50) in experiment [1] came out at 5.18 ± 0.87 µM; in experiment [2], 15.1 µM.
